Measured values as given in article PMC11385767 (Heliyon, 2024).
“Also recorded” adds a separate entry of the source. No end group written: not given here.

Experiments:
[1] = target: HLA-A*11:01 on TAP-deficient T2 cell line (Homo sapiens, UniProt P04439, A114D/D185E/E176A/F33Y/L180Q/S129P/T187R); type: cell-based
HLA-A*02:01 = HLA-A*02:01 (Homo sapiens, UniProt P04439, D140Y/D185E/D98H/E176V/E277Q/G131W/G231S/I119V/I121R/I166T/I218V/L300P/L318F/N151K/N90K/P208A/P217A/Q86G/Q94H/R138H/R169H/T345S); settings: ref [20]; cited from earlier work

Sequence | binding ability on T2 cell line (in words, rank) [1] | binding to HLA-A*02:01 (in words) (HLA-A*02:01)
VINTTDHLK [VINTTDHLK] | VITTDHLK ≈ STIHSIQY > KLIMTQVSK > TTDHLKFSK; also recorded: excellent binding affinity | –
TTDHLKFSK [TTDHLKFSK] | VITTDHLK ≈ STIHSIQY > KLIMTQVSK > TTDHLKFSK; also recorded: lowest binding affinity | –
STIHDSIQY [STIHDSIQY] | no significant difference in IC50 value; also recorded: excellent binding affinity | –
KLIMTQVSK [KLIMTQVSK] | VITTDHLK ≈ STIHSIQY > KLIMTQVSK > TTDHLKFSK; also recorded: moderate binding affinity | –
FVGEFFTDV | – | positive binding
